Test results as given in PubChem BioAssay (NCI).
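Assay format: 96-well plates, 48-hour exposure. At the GI50, growth is halved. Definition used: TGI = concentration required for complete inhibition of growth.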

Tests used:
Test in all cases: growth of human tumour cells (NCI), 48 h
[1] = system: 786-0 renal
[2] = system: A498 renal
[3] = system: A549 NSCLC
[4] = system: ACHN renal
[5] = system: BT-549 breast
[6] = system: CAKI-1 renal
[7] = system: CCRF-CEM leukemia
[8] = system: COLO 205 colon
[9] = system: DU-145 prostate
[10] = system: EKVX NSCLC
[11] = system: HCC-2998 colon
[12] = system: HCT-116 colon
[13] = system: HCT-15 colon
[14] = system: HL-60(TB) leukemia
[15] = system: HOP-62 NSCLC
[16] = system: HOP-92 NSCLC
[17] = system: HS 578T breast
[18] = system: HT29 colon
[19] = system: IGROV1 ovarian
[20] = system: K-562 leukemia
[21] = system: KM12 colon
[22] = system: LOX IMVI melanoma
[23] = system: M14 melanoma
[24] = system: MALME-3M melanoma
[25] = system: MCF7 breast
[26] = system: MDA-MB-231 breast
[27] = system: MDA-MB-435
[28] = system: MOLT-4 leukemia
[29] = system: NCI-H226 lung
[30] = system: NCI-H23 lung
[31] = system: NCI-H460 lung
[32] = system: NCI-H522 lung
[33] = system: NCI/ADR-RES ovarian
[34] = system: OVCAR-3 ovarian
[35] = system: OVCAR-4 ovarian
[36] = system: OVCAR-5 ovarian
[37] = system: OVCAR-8 ovarian
[38] = system: PC-3 prostate
[39] = system: RPMI-8226 leukemia
[40] = system: RXF 393 renal
[41] = system: SF-268 CNS
[42] = system: SF-295 CNS
[43] = system: SF-539 CNS
[44] = system: SK-MEL-2 melanoma
[45] = system: SK-MEL-28 melanoma
[46] = system: SK-MEL-5 melanoma
[47] = system: SK-OV-3 ovarian
[48] = system: SN12C renal
[49] = system: SNB-19 CNS
[50] = system: SNB-75 CNS
[51] = system: SR leukemia
[52] = system: SW-620 colon
[53] = system: T-47D breast
[54] = system: TK-10 renal
[55] = system: U251 CNS
[56] = system: UACC-257 melanoma
[57] = system: UACC-62 melanoma
[58] = system: UO-31 renal

CC1C(C)N(C(=O)CCl)c2ccccc2N1C(=O)CCl (stereo unspecified)
GI50 [1]: 937 nM
TGI [1]: 3020 nM
GI50 [2]: 1590 nM
TGI [2]: 3140 nM
GI50 [3]: 2250 nM
TGI [3]: 6110 nM
GI50 [4]: 309 nM
TGI [4]: 783 nM
GI50 [5]: 849 nM
TGI [5]: 2410 nM
GI50 [6]: 186 nM
TGI [6]: 355 nM
GI50 [7]: 150 nM
TGI [7]: 629 nM
GI50 [8]: 399 nM
TGI [8]: 973 nM
GI50 [9]: 472 nM
TGI [9]: 1800 nM
GI50 [10]: 941 nM
TGI [10]: 2420 nM
GI50 [11]: 1690 nM
TGI [11]: 3230 nM
GI50 [12]: 185 nM
TGI [12]: 406 nM
GI50 [13]: 304 nM
TGI [13]: 1280 nM
GI50 [14]: 211 nM
TGI [14]: 535 nM
GI50 [15]: 1620 nM
TGI [15]: 3520 nM
GI50 [16]: 709 nM
TGI [16]: 1840 nM
GI50 [17]: 1060 nM
TGI [17]: 7630 nM
GI50 [18]: 225 nM
TGI [18]: 523 nM
GI50 [19]: 203 nM
TGI [19]: 435 nM
GI50 [20]: 282 nM
TGI [20]: 2370 nM
GI50 [21]: 550 nM
TGI [21]: 1340 nM
GI50 [22]: 235 nM
TGI [22]: 729 nM
GI50 [23]: 597 nM
TGI [23]: 2200 nM
GI50 [24]: 365 nM
TGI [24]: 1320 nM
GI50 [25]: 318 nM
TGI [25]: 1600 nM
GI50 [26]: 1180 nM
TGI [26]: 3600 nM
GI50 [27]: 276 nM
TGI [27]: 939 nM
GI50 [28]: 243 nM
TGI [28]: 810 nM
GI50 [29]: 1110 nM
TGI [29]: 3520 nM
GI50 [30]: 705 nM
TGI [30]: 2680 nM
GI50 [31]: 1740 nM
TGI [31]: 3980 nM
GI50 [32]: 162 nM
TGI [32]: 347 nM
GI50 [33]: 784 nM
TGI [33]: 13300 nM
GI50 [34]: 194 nM
TGI [34]: 428 nM
GI50 [35]: 499 nM
TGI [35]: 1730 nM
GI50 [36]: 896 nM
TGI [36]: 2570 nM
GI50 [37]: 550 nM
TGI [37]: 12500 nM
GI50 [38]: 1190 nM
TGI [38]: 2850 nM
GI50 [39]: 210 nM
TGI [39]: 649 nM
GI50 [40]: 266 nM
TGI [40]: 961 nM
GI50 [41]: 582 nM
TGI [41]: 2110 nM
GI50 [42]: 1450 nM
TGI [42]: 3060 nM
GI50 [43]: 1400 nM
TGI [43]: 2890 nM
GI50 [44]: 1660 nM
TGI [44]: 4540 nM
GI50 [45]: 838 nM
TGI [45]: 2900 nM
GI50 [46]: 1270 nM
TGI [46]: 2850 nM
GI50 [47]: 1580 nM
TGI [47]: 3000 nM
GI50 [48]: 793 nM
TGI [48]: 3050 nM
GI50 [49]: 2160 nM
TGI [49]: 5400 nM
GI50 [50]: 1360 nM
TGI [50]: 2840 nM
GI50 [51]: 396 nM
TGI [51]: 2020 nM
GI50 [52]: 209 nM
TGI [52]: 485 nM
GI50 [53]: 843 nM
TGI [53]: 2670 nM
GI50 [54]: 780 nM
TGI [54]: 2040 nM
GI50 [55]: 755 nM
TGI [55]: 2140 nM
GI50 [56]: 723 nM
TGI [56]: 3160 nM
GI50 [57]: 624 nM
TGI [57]: 2100 nM
GI50 [58]: 168 nM
TGI [58]: 346 nM
